System: HL-60
Experiment: Antiproliferative activity against human HL60 cells after 72 hrs by MTT assay
Type: functional, cell-based
Settings: HL-60, 72 h

IC50: 0.01 µM
Compound: CN(C)C(=S)NN=C(c1ccccn1)c1ccccn1
